Measurements: patent publication US11993786B2, “Methods and compositions for generating pacemaker cells” (TAIPEI VETERANS GENERAL HOSPITAL, priority 2017, dated 2024)

What was measured:
[1] = molecular target: T1, HCN4 (Rattus norvegicus, UniProt Q9JKA7); test: Effect of HCN4 inhibitor on spontaneous beating rate (calcium transient cycling); format: cell-based; settings: 3 μM ivabradine
T1 construct: endogenous in cells; host or cells: NRVMs (primary neonatal rat ventricular cardiomyocytes) on silk fibroin film or fibronectin control
T1 sequence (Q9JKA7 1-1198): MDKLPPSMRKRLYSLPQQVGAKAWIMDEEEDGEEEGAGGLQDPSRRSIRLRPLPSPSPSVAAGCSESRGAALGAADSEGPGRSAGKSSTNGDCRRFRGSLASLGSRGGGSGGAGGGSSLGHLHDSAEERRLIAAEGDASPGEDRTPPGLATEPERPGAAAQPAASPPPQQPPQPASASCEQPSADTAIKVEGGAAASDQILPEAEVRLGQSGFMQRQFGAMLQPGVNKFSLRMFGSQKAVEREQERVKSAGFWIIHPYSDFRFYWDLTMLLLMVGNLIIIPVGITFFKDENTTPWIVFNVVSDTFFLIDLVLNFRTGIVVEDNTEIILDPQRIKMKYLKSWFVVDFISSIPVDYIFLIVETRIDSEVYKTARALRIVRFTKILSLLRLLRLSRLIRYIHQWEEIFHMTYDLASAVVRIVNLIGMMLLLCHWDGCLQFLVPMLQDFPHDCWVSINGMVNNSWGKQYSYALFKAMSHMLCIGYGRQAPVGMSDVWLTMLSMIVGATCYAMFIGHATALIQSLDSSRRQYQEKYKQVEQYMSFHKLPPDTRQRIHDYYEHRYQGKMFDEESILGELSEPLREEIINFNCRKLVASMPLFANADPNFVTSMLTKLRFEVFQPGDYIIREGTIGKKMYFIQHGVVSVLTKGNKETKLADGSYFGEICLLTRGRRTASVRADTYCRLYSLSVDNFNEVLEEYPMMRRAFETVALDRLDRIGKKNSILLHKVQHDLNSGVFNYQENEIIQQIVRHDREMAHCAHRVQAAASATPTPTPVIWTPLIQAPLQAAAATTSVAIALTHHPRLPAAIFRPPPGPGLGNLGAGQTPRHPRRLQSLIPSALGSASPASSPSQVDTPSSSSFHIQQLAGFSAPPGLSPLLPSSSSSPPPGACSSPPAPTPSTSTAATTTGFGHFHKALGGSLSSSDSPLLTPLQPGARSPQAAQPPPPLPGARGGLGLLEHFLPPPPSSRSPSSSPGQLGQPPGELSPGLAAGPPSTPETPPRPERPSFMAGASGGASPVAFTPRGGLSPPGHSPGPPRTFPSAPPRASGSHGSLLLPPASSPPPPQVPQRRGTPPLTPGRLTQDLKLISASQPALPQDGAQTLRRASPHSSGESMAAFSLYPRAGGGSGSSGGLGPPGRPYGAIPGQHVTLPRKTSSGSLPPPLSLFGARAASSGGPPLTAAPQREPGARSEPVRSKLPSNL
Protocol: (§1) Seeded cardiomyocytes in Tyrode's solution were loaded with Ca^2+ indicators (10 μM Fluo-3/AM for cardiomyocytes; Calbiochem, San Diego, CA, USA) and incubated at room temperature for 30 minutes in the dark. Fluorescence imaging was performed with a laser scanning confocal microscope (Olympus IX71, Olympus America). The fluorescence density (F) was normalized against the baseline fluorescence (F0) to determine the transient [Ca^2+]i changes, which had excluded variations in the fluorescence intensity because of different volumes of injected dye. Offline analysis was performed using Olympus IX71 and ImageJ.
The spontaneous beating is tightly regulated by HCN4 channels in native SAN pacemakers. Therefore, in this example, cells from Example 1 were treated with 3 μM ivabradine, a selective HCN4 inhibitor, to evaluate the impact of HCN4 on the function of SF-treated cardiomyocytes.

[2] = tested on: β-adrenergic receptor; test: Sympathetic stimulation of beating rate with isoproterenol; format: cell-based, rat; settings: 1 μM isoproterenol
Protocol: as §1
Isoproterenol is a non-selective β-adrenergic receptor agonist, which is used for pharmacological sympathetic stimulation to evaluate the physiological sympathetic regulation of sinus node. In this example, the functional regulations of autonomic neurotransmitters in SF-treated cardiomyocytes were investigated using the isoproterenol treatment (1 μM).

| Structure (SMILES) | suppression of beating rate (cycling rate of spontaneous calcium transient) ([1]; SF-treated cardiomyocytes, vs baseline, n=15, P=0.002) [%] | beating rate vs baseline ([1]; control cells, n=32, P=0.24) | beating rate ([2]; SF-treated cardiomyocytes, n=10, P=0.001 vs control) [bpm] | increment of beating rate without vs with isoproterenol ([2]; SF-treated cells, n=10, P=0.02 vs control) [bpm] | beating rate ([2]; control cells) [bpm] | increment of beating rate without vs with isoproterenol ([2]; control cells) [bpm] |
| --- | --- | --- | --- | --- | --- | --- |
| COc1cc2c(cc1OC)CC(=O)N(CCCN(C)C[C@H]1Cc3cc(OC)c(OC)cc31)CC2 [ivabradine] | 57 | did not differ significantly | – | – | – | – |
| CC(C)NCC(O)c1ccc(O)c(O)c1 (stereo not drawn) [isoproterenol] | – | – | 162.4±9.6 | 87.1±12.4 | 87.6±14.7 | 49.2±8.3 |
